In PMC11267548 (JACS Au, 2024):

Molecular target: T1, ScGPUT (Solitalea canadensis, UniProt H8KMA8)
T1 sequence (H8KMA8 1-293): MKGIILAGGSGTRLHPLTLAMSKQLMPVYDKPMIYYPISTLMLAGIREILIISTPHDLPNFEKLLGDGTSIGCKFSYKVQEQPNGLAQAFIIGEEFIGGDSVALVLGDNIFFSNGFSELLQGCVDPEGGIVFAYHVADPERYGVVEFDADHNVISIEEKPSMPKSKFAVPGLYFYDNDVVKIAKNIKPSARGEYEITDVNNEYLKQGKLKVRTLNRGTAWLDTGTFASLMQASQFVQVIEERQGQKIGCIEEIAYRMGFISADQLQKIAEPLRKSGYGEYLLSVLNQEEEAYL
Test: conversion of xylose-1-phosphate to UDP-xylose, TLC
Format: biochemical
Details: read-out: % inhibition at 10 mM

Structure (SMILES)	inhibition at 10000 µM
Nc1ncnc2c1ncn2[C@@H]1O[C@H](COP(=O)(O)OP(=O)(O)O)[C@@H](O)[C@H]1O [ADP]	> 50%
Nc1ncnc2c1ncn2[C@@H]1O[C@H](COP(=O)(O)OP(=O)(O)OP(=O)(O)O)[C@@H](O)[C@H]1O [ATP]	> 50%
